Consider three compounds from patent publication US10973815B2, “Delta opioid agonist mu opioid antagonist compositions and methods for treating Parkinsons disease” (priority 2016, dated 2021).

Data set [1] has as its system MPTP-lesioned cynomolgus macaques. Put plainly: Acute DPI-289 in combination with low-dose L-DOPA, versus high-dose L-DOPA, in MPTP-lesioned macaques with L-DOPA-induced dyskinesia. The data set is classed as in vivo, Macaca fascicularis. Conditions: high dose L-DOPA alone (about 30 to 31 mg/kg). The source says:
This study utilized female MPTP-lesioned cynomolgus macaques that have received chronic repeat-treatment with L-DOPA and manifested stable and reproducible dyskinesia, of choreic and dystonic nature, in response to subsequent L-DOPA-treatments. Eight cynomolgus monkeys (Macaca fascicularis, 7.6-13.1 years of age, 3.0-4.5 kg) were used in this study. In a prior experiment, for each individual animal a low and high dose of L-DOPA was established such that the low dose (LD1) provided modest anti-parkinsonian action (1-2 h) and elicited predominantly non-disabling dyskinesia, the high dose (LDh) provided the best anti-parkinsonian effect achievable but also elicited disabling dyskinesia and an anti-parkinsonian benefit of 2-3 h duration
The behavioral effects of acute DPI-289 administered in combination with low-dose L-DOPA (LD1) were assessed. Also higher dose of L-DOPA was also assessed without the addition of DPI-289. The low dose (LD1) was about 10 to 11 mg/kg of L-DOPA which is considered to be sub-optimal in terms of anti-parkinsonian benefit. The dose of DPI-289 was 20 mg/kg and the high dose of L-DOPA was about 30 to 31 mg/kg and considered to an optimal does in terms of anti-parkinsonian benefit but with disabling dyskinesia. The DPI-289 was administered one (1) hour prior to the L-DOPA and start of observation. Activity counts were collected and parkinsonian disability and dyskinesia was assessed via post-hoc analysis of video-recordings by a movement disorder neurologist blinded to treatment.
On the day before behavioral observations, food was removed overnight, from 5 p.m. On days of behavioral assessment, treatment was administered to the animals in their home cage at approximately 9 a.m. A 6 h period of observation then commenced 1 h after oral dosing.
The animals were rendered parkinsonian by once daily subcutaneous injection of 0.2 mg/kg MPTP, administered for 8-12 days, until the first appearance of parkinsonism symptoms. After this time, a parkinsonian syndrome reached a moderate to marked level, over approximately 30 days, and stabilized. Additional administrations of MPTP were given to some animals to titrate to similar degrees of parkinsonism in individuals across the group. […] Sixty days after commencing MPTP administration, L-DOPA (25 mg/kg) was administered orally twice daily for at least two months. L-DOPA was given with the decarboxylase inhibitor benserazide (as Madopar™). This treatment leads to the development of motor fluctuations, including dyskinesia.

Data set [2] relates to unilateral 6-OHDA-lesioned Rats. Put plainly: Postural asymmetry and dyskinesia (AIMs) on repeated dosing in unilateral 6-OHDA-lesioned rats. The data set is classed as in vivo, rat. Conditions: 6 mg/kg i.p. daily for 15 days.
In the next data set the test system is MPTP-treated marmosets. Conditions: similar dose levels (10 mg/kg); cited from earlier work.
A further data set has as its system rats. Conditions: cited from earlier work.
For another data set, the system named is mice. Conditions: cited from earlier work.
In data set [3] the test system is rats treated with reserpine or dopamine receptor antagonists (haloperidol or SCH23390). Conditions: 10 mg/kg i.p.; cited from earlier work.
In data set [4] the test system is MPTP-lesioned primate (marmosets) model of Parkinson's disease. Conditions: 10 mg/kg i.p.; without attenuation of the anti-parkinsonian actions of L-DOPA; cited from earlier work.

On to `N[C@@H](Cc1ccc(O)c(O)c1)C(=O)O` [L-DOPA, reference compound], for which, in data set [1], the dyskinesia result is “severe dyskinesia in the first three hours after dosage” and the parkinsonian disability result was “parkinsonian disability increased in the last four to six hours”. The postural asymmetry result in data set [2] is recorded as “reduced or reversed the postural asymmetry”.

As to `C=CCN1C[C@H](C)N([C@H](c2ccc(C(=O)N(CC)CC)cc2)c2cccc(OC)c2)C[C@H]1C` [SNC80], in the data set with MPTP-treated marmosets, the “motor activity, bradykinesia and disability scores” value was “restored motor activity, bradykinesia and disability scores to normal”; the parkinsonian posture result was “not statistically reversed”. The convulsions entry in the data set on rats is “seizure-like convulsions”. For the same compound, the convulsions entry with mice is listed as “seizure-like convulsions”. The “behavioral deficits (ambulatory behavior, grooming, rearing, social interaction and exploration, static investigation)” value in data set [3] was “restored behavioral deficits”.

As to `COc1cccc2c1[C@]13CCN(CC4CC4)[C@H](C2)[C@]1(OC)CCC(=O)C3` [cyprodime], the L-DOPA-induced dyskinesia entry in data set [4] is on record as “reduce completely L-DOPA-induced dyskinesia”.
